Test system: tubulin
Assay: Electroblotting of tubulin from stained gels (Example 24)
Settings: phosphate-buffered saline staining formulation
Procedure: Tubulin was selected as a model protein since it is relatively difficult to elute from gels by simple passive diffusion (Example 23). Two-fold serial dilutions of […] ranging from 1000 to 1 ng are applied and separated by sodium dodecyl sulfate (SDS)-polyacrylamide gel electrophoresis according to standard procedures. After electrophoresis, gels are stained with either Compound 9 or SYPRO Orange dye as described in Example 23, photographed and then incubated in a transfer buffer consisting of 10 mM Tris, 96 mM glycine, 10% methanol, 0.1% sodium dodecyl sulfate, pH 8.3. Proteins are electroblotted to poly(vinylidene difluoride) (PVDF) membranes using the same transfer buffer for 120 minutes using a semi-dry blotter by standard methods. Immunoblotting is performed by standard methods and colorimetric procedures are employed to detect the tubulin using 5-bromo-4-chloroindolyl phosphate/nitroblue tetrazolium (BCIP/NBT). […] Tubulin can subsequently be visualized by using alkaline phosphatase-conjugated secondary antibody with similar detection sensitivity as electroblots of unstained, control gels. The transfer of tubulin from gels stained with SYPRO Orange dye in 7% acetic acid is not possible despite a 20-minute incubation in transfer buffer containing 0.1% sodium dodecyl sulfate prior to blotting.

SMILES: CCn1c2ccccc2c2cc(/C=C/c3cc[n+](CCCCS(=O)(=O)[O-])c4ccccc34)ccc21 [Compound 9]
- Transfer of tubulin from stained gel by electroblotting: readily transferred

Reference: patent US6579718B1, “Carbazolylvinyl dye protein stains” (Molecular Probes, Inc., priority 2000, dated 2003)
